Laboratory results reported in US11458201B2, “Mucosal active agent delivery” (Suda Ltd., priority 2016, dated 2022).
Structures can show the parent of a compound that is named as a salt. Where two headings read alike, the source gives them in different places.

Assays:
[1] = In vitro single hydrotrope permeability experiments, coated artificial membranes (Franz cell); type: in vitro ADME
Experimental: The solutions thus contain the exact same concentration of active agent in the presence or absence of hydrotrope. The samples may then be tested for permeability through an artificial membrane under identical conditions so that the effect of the hydrotrope on the permeability of the active can be assessed.
Regenerated cellulose membrane filters are coated with lecithin in dodecane for permeation experiments. […] Air bubbles are removed before donor chamber is clamped. The filter is incubated for 1 h and any excess lecithin solution is then removed. All samples are continuously stirred on a magnetic plate at 300 rpm for duration of pre-incubation and subsequent permeation experiment.
After membrane preparation and equilibration, 240 uL each of formulation at buffer pH 6.8 are added to the donor chamber.

[2] = cited from earlier work; for logP: as listed in table of actives by hydrotrope class; for log P: list of suitable active agents
porcine buccal mucosa = test: Ex vivo permeability experiments, porcine buccal membranes in Franz cells; type: in vitro ADME, domestic pigs (Sus scrofa domestica)
Experimental: Buccal tissue from domestic pigs (Sus scrofa domestica) were obtained from a local abattoir directly after slaughter and immediately placed on ice. Within 2 hours of collection, tissue is prepared for delivery experiments. For permeation experiments tissue is placed in pH 6.8 PBS and epithelium separated from the connective tissue using surgical dissection or by contact in solution (pH 6.8 PBS) heated to 65° C. for 60 seconds. Surgical dissection is preferred method for maintaining intact epithelia with minimal impact on integrity which can occur with heating. After isolation, tissue is placed on Franz cell receiver chamber filled with PBS at pH optimised for permeant solubility and containing micro-stirring bar. Air bubbles are removed before donor chamber is clamped. The exposed epithelial surface is pre-incubated in pH 6.8 PBS in air incubator heated to 37° C. for minimum 15 minutes to equilibrate to temperature. All samples are continuously stirred on a magnetic plate at 300 rpm for duration of pre -incubation and subsequent permeation experiment. After equilibration, the donor chamber buffer is removed by pipette and replaced with active agent solution to be tested. […] At time 0 samples of 200 ul is removed from receiver chamber and 200 ul volume replaced with buffer. Samples taken at timed intervals (standard 15, 30, 60 minutes) are 200 ul volumes removed from side arm of receiver chamber using gel-loading pipette tips. Removed samples are placed in HPLC tubes for HPLC analysis. After each sample is taken the 200 ul volume is replaced with PBS […] buffer to maintain constant volume in receiver chamber (which will dilute slightly each subsequent sample).

[3] = In vivo studies in rabbits, buccal administration, blood PK; parameters: species or system rabbits (Oryctolagus cuniculus) New Zealand White; conditions: rabbit, buccal single dose 20 mg, 2.5% caffeine and 7.5% nicotinamide (F4) in comparison to the Base formulation, FIG. 14
Experimental: Ten male rabbits (Oryctolagus cuniculus) Strain New Zealand White (NZW) aged 8-12 weeks were delivered 5 days prior to the experiment for acclimatisation. The animals were kept in a controlled environment (targeted ranges: temperature 21±3° C., humidity 30-70%), with a light/dark cycle each of 12 hours, and under barrier (quarantine) conditions. Temperature and relative humidity was monitored continuously throughout the study duration. Feed consisted of Rabbit and Guinea Pig pellets. Municipal town water was supplied ad libitum. Dietary enrichment was provided during the acclimation period in the form of fresh fruit and vegetables. Enrichment items were not provided following randomisation into study groups and during dose administration.
Prior to dose administration, a total of ten male NZW rabbits were randomized into two groups of five based on body weight. Each animal group was allocated to receive a different sildenafil Formulation (either sildenafil Formulation 4 (F4) or sildenafil Base formulation (see Example 2)). […]
Portions of whole blood (400 μL) were collected into K2EDTA blood tubes then centrifuged and the resulting […] prior to analysis by LC-MS/MS. Peak concentration in blood (Cmax), Time to reach Cmax (Tmax), half-life (t1/2) and area under curve (AUC) were calculated.

[4] = single hydrotrope screen, formulation at buffer pH 6.8, same active concentration with and without hydrotrope
[5] = as listed with results of FIGS. 3-9
[6] = sildenafil citrate formulations containing hydrotropes (Table 4) vs Base, FIGS. 11A and 11B
[7] = formulated with Class A hydrotrope caffeine, sweeteners and flavours vs same formulation minus the hydrotrope content, FIG. 13

Compound | penetration through an artificial membrane in the presence of various hydrotropes (most effective hydrotrope) [1, 4] | logP [2] | log P or log D [2, 5] | log P [2] | further results
Cc1ccc(-c2nc3ccc(C)cn3c2CC(=O)N(C)C)cc1 [Zolpidem tartrate, zolpidem tartrate] | citric acid most effective | Zolpidem tartrate (logP 1.2 | 1.2 | 1.2 | –
O=C(O)Cc1ccccc1Nc1c(Cl)cccc1Cl [Diclofenac sodium, diclofenac sodium] | – | – | – | – | penetration through an artificial membrane in the presence of various hydrotropes (most effective hydrotrope) ([1]; hydroalcoholic solution): caffeine most effective; log P or log D ([2]; hydroalcoholic solution): 4.75
CC(C)Cc1ccc(C(C)C(=O)O)cc1 (stereo not shown) [Ibuprofen, ibuprofen] | no improvement | – | 3.5 | – | –
Cn1c(=O)c2c(ncn2C)n(C)c1=O [caffeine] | – | – | – | – | effect on early permeation (porcine buccal mucosa; [6]): limited effect; effect on total permeation (porcine buccal mucosa; [6]): increases total permeation
CNS(=O)(=O)Cc1ccc2[nH]cc(CCN(C)C)c2c1 [Sumatriptan succinate, sumatriptan succinate] | benzoic acid most effective | Sumatriptan succinate (logP 0.93 | 1.7 | 0.93 | log D ([2]; pH 6): 1.7
CN(C)CCOC(C)(c1ccccc1)c1ccccn1 (stereo not shown) [Doxylamine succinate, doxylamine succinate] | benzoic acid most effective | 2.96 | 2.9 | – | early permeation (porcine buccal mucosa; [7]): does not affect; total permeation (porcine buccal mucosa; [7]): increases total permeation
CCCc1nn(C)c2c(=O)[nH]c(-c3cc(S(=O)(=O)N4CCN(C)CC4)ccc3OCC)nc12 [Sildenafil citrate, sildenafil citrate] | – | – | – | – | bioavailability of sildenafil [3]: marked increase; log D ([2]; pH 7): 1.6; log P or log D ([2]; pH 7): 1.6
Cc1nccn1CC1CCc2c(c3ccccc3n2C)C1=O (stereo not shown) [Ondansetron HCl, ondansetron hydrochloride] | nicotinamide or caffeine most effective | Ondansetron HCl (logP 2.4 | 2.4 | 2.4 | hydrotrope class giving the greatest increases in permeability [1]: Class A hydrotropes
